Columns and labels:
[1] = test system: Stat5; test: Stat5 phosphorylation in cancer cells (summary); format: cell-based, human; conditions: read-out: IC50, inhibition of Stat5 phosphorylation, range over cell lines
Description: Down-regulation of Stat5 phosphorylation by IST5 can theoretically be caused by IST5 blocking Stat5 monomer docking to the activated receptor-Jak2 complex (Figure 1) and/or by IST5 inhibition of Jak2 kinase activity. […] To further investigate whether IST5 is able to disrupt dimerization of Stat5 molecules, we employed two separate cell-based assays. […] Because both phosphorylation and dimerization of Stat5 were inhibited at similar concentrations of IST5, it is difficult to determine whether disruption of Stat5 dimerization by IST5 is caused by suppression of Stat5 phosphorylation or a direct effect of IST5 in hindering Stat5 dimer-formation or both events occurring at the same time in the cell. However, it is known that heteromolecular interactions are easier to disrupt than interactions between two Stat5 monomers implying that the primary mechanism of action of IST5 may be suppression of Stat5 docking to the receptor-kinase complex. It is important to note that bypassing tyrosine kinases responsible for Stat5 phosphorylation by utilizing direct Stat5 inhibitor would be advantageous for therapy development for Stat5-regulated cancers because targeting Stat5 directly is likely to cause less off-target side effects than targeting kinases or cell surface receptors.

[2] = test system: PC cells; design: method as in PMID 18316550, PMID 23942095, PMID 26362718, PMID 20966544, PMID 20233708; conditions: cited from earlier work
[3] = biological target: JAK1 (Homo sapiens, UniProt P23458); test: Cell-based tyrosine phosphorylation of Jak kinases (IP/immunoblot); design: endogenous in cells; host or cells: DU145 and CWR22Pc; conditions: 6 µM, 6 h
JAK1, sequence (P23458 whole entry): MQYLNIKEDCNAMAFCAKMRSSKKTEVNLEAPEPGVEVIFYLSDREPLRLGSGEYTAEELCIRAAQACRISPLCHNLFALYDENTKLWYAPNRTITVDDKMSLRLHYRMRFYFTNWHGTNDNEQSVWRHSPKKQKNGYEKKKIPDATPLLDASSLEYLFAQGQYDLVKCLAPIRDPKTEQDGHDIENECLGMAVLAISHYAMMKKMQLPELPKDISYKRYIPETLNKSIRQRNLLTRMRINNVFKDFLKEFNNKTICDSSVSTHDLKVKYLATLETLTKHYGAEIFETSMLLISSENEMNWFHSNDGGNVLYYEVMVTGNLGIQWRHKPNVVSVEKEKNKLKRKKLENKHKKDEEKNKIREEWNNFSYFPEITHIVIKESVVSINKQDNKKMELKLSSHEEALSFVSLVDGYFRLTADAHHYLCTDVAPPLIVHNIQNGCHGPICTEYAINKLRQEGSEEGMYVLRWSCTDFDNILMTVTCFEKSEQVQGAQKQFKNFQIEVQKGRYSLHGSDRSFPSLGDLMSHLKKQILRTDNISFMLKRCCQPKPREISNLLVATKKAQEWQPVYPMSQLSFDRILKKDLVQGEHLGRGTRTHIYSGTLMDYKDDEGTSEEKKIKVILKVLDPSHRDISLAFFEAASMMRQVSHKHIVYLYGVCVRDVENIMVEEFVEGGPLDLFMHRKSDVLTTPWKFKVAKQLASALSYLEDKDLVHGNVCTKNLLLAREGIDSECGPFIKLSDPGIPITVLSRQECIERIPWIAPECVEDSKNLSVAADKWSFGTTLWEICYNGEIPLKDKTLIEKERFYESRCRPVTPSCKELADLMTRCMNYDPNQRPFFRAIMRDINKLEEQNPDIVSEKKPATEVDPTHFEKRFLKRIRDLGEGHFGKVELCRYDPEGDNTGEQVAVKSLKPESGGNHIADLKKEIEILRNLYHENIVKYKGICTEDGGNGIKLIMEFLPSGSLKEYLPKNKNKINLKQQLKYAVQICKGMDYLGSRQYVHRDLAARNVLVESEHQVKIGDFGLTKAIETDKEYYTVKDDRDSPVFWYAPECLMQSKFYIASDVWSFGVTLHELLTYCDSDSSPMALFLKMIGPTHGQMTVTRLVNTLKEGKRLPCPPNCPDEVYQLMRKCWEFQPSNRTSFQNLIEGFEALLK
Description: Figure 5 Both IST5 and IST5-M suppress dimerization of Stat5 with similar efficacies in prostate cancer cells. (A), IST5 and IST5-M inhibit equally potently dimerization of Stat5 in native-gel-based Stat5 dimerization assay. CWR22Rv1 cells were transfected with STAT5A-eYFP (Stat5 wild type), STAT5A-N642H-eYFP (constitutive activated Stat5 by N642H mutation, as a positive control) or STAT3-eYFP (Stat3 wild type, as a negative control) constructs for 3 days. CWR22Rv1 cells were serum-starved for 16 h, pretreated with vanadate (1 mM) for 2 h, followed by treatment with vehicle, IST5 and IST5-M (1 µM) for 6 h and stimulation with Prl (10 nM) for 1 h. Dimerization of Stat5 was analyzed by detection of the eYFP fluorescence of the native Coomassie gel. (B), IST5 and IST5-M inhibited cytokine-induced dimerization of Stat5 with high efficacy in PC cells. PC-3 cells were co-transfected with pCMV-3Flag-Stat5a, pCMV-3Myc-Stat5a, and pPrlR plasmids. Cells were serum-starved for 16 h, pretreated with IST5, IST5-M or vehicle at indicated concentrations for 2 h, followed by stimulation with Prl (10 nM) for 30 min. Anti-MYC mAb was utilized to immunoprecipitate the MYC-tagged Stat5a and blotted with anti-FLAG mAb or anti-MYC mAb, as indicated. […] (C), densitometric analyses of the Stat5 dimerization data based on co-immunoprecipitations and immunoblotting in (B). […] Prostate cancer cells were treated with IST5 (6 µM) or vehicle for 6 h. Jak1, Jak2, Jak3 and Tyk2 were immunoprecipitated and blotted with anti-phospho-tyrosine, Jak1, Jak2, Jak3 and Tyk2 antibodies. Whole cell lysates (WCL) were immunoblotted for actin. (E), differences in posttranslational modifications were detected between native and recombinant STAT5a using mass spectrometry. Native STAT5a from CWR22Rv1 cells and recombinant STAT5a from E. coli were gel-purified, digested using trypsin, and analyzed by bottom-up mass spectrometry. Native full-length STAT5a (blue) is show with recombinant STAT5A highlighted (red). Sites of acetylation and phosphorylation from the respective sources are noted including two previously published sites of phosphorylation (asterisk).
Given that IST5 suppresses phosphorylation of Stat5 in PC cells, it is possible that IST5 inhibits the kinase(s) responsible for Stat5 phosphorylation and activation in PC cells. To evaluate if IST5 affects kinase activity in cancer cells, we tested kinase inhibitory activity of IST5 in two custom-tailored panels including 54 relevant kinases (Table 1), including Jak1, Jak2, Jak3, Tyk2, Abl1, Abl2, Lck, Fyn, Src and TrkB/C. In addition, we further tested if IST5 inhibits tyrosine phosphorylation of Jak1, Jak2, Jak3 or Tyk2 using a cell-based assay (Figure 5D), where phosphorylation of the kinase is indicative of enzymatic kinase activity. DU145 and CWR22Rv1 cells were treated with IST5 (6 µM) for 6 h followed by immunoprecipitation of Jak1, Jak2, Jak3 and Tyk2 and immunoblotting with anti-phospho-tyrosine antibody. […] Collectively, these findings indicate that the inhibitory effect of IST5 on Stat5 phosphorylation in cancer cells is not due to inhibition of Jak2 or other key kinases including Jak1, Jak3, Tyk2, Src, Lck, Fyn, TrkB/C, Abl1 or Abl2 (Table 1, Figure 5D).
Cell pellets were solubilized in the lysis buffer (10 mM Tris-HCl (pH 7.6), 5 mM EDTA, 50 mM sodium chloride, 30 mM sodium pyrophosphate, 50 mM sodium fluoride, 1 mM sodium orthovanadate, 1% Triton X-100, 1 mM phenylmethylsulfonyl fluoride, 5 µg/mL aprotinin, 1 µg/mL pepstatin A and 2 µg/mL leupeptin), and protein concentrations of clarified cell lysates were determined by a simplified Bradford method (Bio-Rad, Hercules, CA, USA). The whole cell lysates were immunoprecipitated with polyclonal antibodies (Table S1) followed by incubation with protein A-Sepharose beads (GE Healthcare, Chicago, IL, USA). […]

Q: With `O=P(O)(O)OCC1OC(n2cnc3c(NCc4ccccc4)ncnc32)C(O)C1O` (stereo not shown) [IST5] as the compound, how does the IC50 [1] read?
A: 1100 to 1300 nM

Q: What about the “apoptotic death of PC cells” value [2] of the same compound?
A: induce extensive apoptotic death

Q: What about the “phosphorylation of Jak1” value ([3]; CWR22Pc cells) of the same compound?
A: did not alter

Q: And the “phosphorylation of Jak1” value ([3]; DU145 cells)?
A: did not alter
